Data published in US8168628B2, “Conjugated psychotropic drugs and uses thereof” (Ramot at Tel-Aviv University Ltd., priority 2001, dated 2012).
Read-outs that look alike come from different tables or passages of the source.

Key:
prolactin = experiment: Prolactin blood level in rats (enzyme immunometric assay); type: in vivo, rat; details: i.p.; measured at 0, 60 and 120 min after treatment
Description: Prolactin secretion: Typical neuroleptics induce hyperprolactinemia, which is frequently associated with gallactorehea and impaired gonadal and sexual function. The measurement of the circulatory plasma prolactin level was therefore used as a sensitive biochemical marker for the psychotropic activity of the known neuroleptics and the chemical conjugates of the present invention, following intraperitoneal or oral administration thereof. Thus, blood was collected from the punctured eye orbital of rats under ether anesthesia and the assay was performed using Millennia, rat prolactin enzyme immunometric assay-kit (DPC, USA).

B16 MDR = experiment: Proliferation test, B16 MDR cells; type: cell-based, murine; details: Mus musculus; linear regression of survival percentage
Protocol: (§1) Cell lines: Human prostate carcinoma (PC-3), human colon carcinoma (HT-29), murine melanoma (B-16) and its drug resistant subclone (B-16 MDR), mouse fibroblasts (3T3), myeloid leukemia (HL 60) and its drug resistant subclone (HL 60 MX2), endometrium cell line (MES SA) and its drug resistant subclone (MES DX5), jurkat T lymphoma and monocyte leukemia (U-937), were used in this study.
(§2) Proliferation of cancer and normal cells: Proliferation was measured by neutral red assay or by a fluorometric assay quantitating DNA content. In the neutral red assay, the neutral red is absorbed by lysosomes, thus causing coloring of living cells. Quantitative analysis is performed by colorimetric assay (ELISA reader at 550 nm). In the fluorometric assay, alamar blue is used as a redox indicator. Alamar blue fluorescence was measured at an excitation wavelength of 544 nm and an emission wavelength of […] (FLUOstar BMG Lab Technologies, Offenburg, Germany).
(§3) The cells were sub-cultured and the tested compounds were added thereto in increasing concentrations. The IC50 values were determined by linear regression of the survival percentage of the cells.

B16 = experiment: Proliferation test, B16 melanoma cells; type: cell-based, murine; details: for IC50: Mus musculus, B16, linear regression of survival percentage
Protocol: as §1, §2, §3

HT-29 = experiment: Proliferation test, HT-29 cells; type: cell-based; details: Homo sapiens, linear regression of survival percentage
Protocol: as §1, §2, §3

PC-3 = experiment: Proliferation test, PC-3 cells; type: cell-based; details: Homo sapiens, linear regression of survival percentage
Protocol: as §1, §2, §3

3T3 = experiment: Proliferation test, 3T3 fibroblasts; type: cell-based; details: Mus musculus, NIH3T3; linear regression of survival percentage
Protocol: as §1, §2, §3

Normal rat fibroblasts = experiment: Proliferation test, normal rat fibroblasts; type: cell-based; details: Fibroblast, linear regression of survival percentage
Protocol: The primary cultures of rat fibroblasts were obtained from neonatal rats using known procedures.
as §2, §3

HL 60 = experiment: Proliferation test, HL 60 cells; type: cell-based; details: Homo sapiens, linear regression of survival percentage
Protocol: as §1, §2, §3

HL 60 MX2 (MDR) = experiment: Proliferation test, HL 60 MX2 (MDR) cells; type: cell-based; details: Homo sapiens, HL60/MX2; linear regression of survival percentage
Protocol: as §1, §2, §3

MES SA = experiment: Proliferation test, MES SA cells; type: cell-based; details: Homo sapiens, linear regression of survival percentage
Protocol: as §1, §2, §3

MES SA DX5 (MDR) = experiment: Proliferation test, MES SA DX5 (MDR) cells; type: cell-based; details: Homo sapiens, linear regression of survival percentage
Protocol: as §1, §2, §3

Jurkat T lymphoma cells = experiment: Proliferation / viability test, Jurkat T lymphoma cells; type: cell-based; details: Homo sapiens
Protocol: as §1, §2, §3

U-937 = experiment: Proliferation test, U-937 cells; type: cell-based; details: Homo sapiens, linear regression of survival percentage
Protocol: as §1, §2, §3

in vivo = details: ICR, mouse, in vivo, ip
Protocol: (§4) Toxicity: In vitro toxicity was determined by measuring the effect of the tested compounds (either known neuroleptics or the chemical conjugates of the invention) on primary cultures of neurons and whole brain neuron and glia cells obtained from the brains of neonatal mice. In vitro toxicity of perphenazine and its chemical conjugate AN 168 was also determined with rat myocytes. Acute toxicity in vivo as determined by the LD50 was evaluated on 2 months old ICR mice following the administration of a single intraperitoneal bolus-dose of drug.
(§5) The in vivo toxicity of perphenazine and AN 167 was evaluated following the intraperitoneal administration of a single dose thereof to mice.

ICR mice = experiment: Acute toxicity in vivo (LD50) in mice; details: single intraperitoneal dose, compared with perphenazine (FIG. 21)
Protocol: as §4, §5

rats [1] = experiment: Catalepsy in rats, “wall” test
Protocol: (§6) Animals: Young adult male rats (150-230 grams) were purchased from Harlan (Israel). Animals were divided 2-5/cage and housed in controlled conditions in the animal room for a week prior to the experiments. The experiments were conducted with naive animals, in a double blind procedure. In each experiment various treatment groups (about 5-10 animals each) were tested.
(§7) Catalepsy in rats: The manifestation of the extrapyramidal adverse effects induced by typical neuroleptics was evaluated by the appearance of stereotypic cataleptic behavior in rats following the neuroleptic treatment. Catalepsy was determined by two methods: (i) by measuring the time it took an animal hanging on a cage wall to move its hind legs and reach a flat surface (the “wall” test); and (ii) rats were placed on a flat surface with their anterior limbs leaning on a flat bar (5.5 cm height) resembling a piano playing position. Catalepsy was determined by the time it took an animal to descend and reach the flat surface (the “piano” test). The maximum time of follow up was 2 minutes and these measurements were performed hourly and individually for each animal. These tests provide an assessment of central dopamine (DA) blocking activity and are acceptable criteria for extrapyramidal symptoms induced by anti-psychotic drugs [10].
(§8) A control animals group was treated with the vehicle (lactic acid) only.

rats [2] = experiment: Behavioral criteria: sedation and mobility score in rats; details: score 0-3; for sedation and mobility score, 30 min / sedation and mobility score, 60 min / sedation and mobility score, 90 min / sedation and mobility score, 120 min / sedation and mobility score, 180 min / sedation and mobility score, 240 min: i.p., 5 mg/kg perphenazine, 7.5 mg/kg fluphenazine or equimolar conjugate; for Sedation score: oral, 4-6 hours after treatment
Protocol: The effect of the administration of the tested compound on animals behavior was measured by evaluating the degree of animal sedation and mobility following the treatment described hereinabove, using a score of from 0 to 3. A score of 0 represents active and mobile animals, 1 represents calm and mobile animals, 2 represents calm and immobile animals and 3 represents completely ataxic and non-alert animals.

rats [3] = experiment: Catalepsy in rats, “piano” test, oral administration; type: in vivo, rat; details: oral, 10 and 20 mg/kg perphenazine or equimolar doses of conjugate
Protocol: To this end, the induced catalepsy, the prolactin blood levels and the animal behavior were measured as described hereinabove, following oral administration of either AN 168 or perphenazine alone to rats. Animals, divided 5 per cage, were treated by oral administration of perphenazine or AN-168 dissolved in 1% lactic acid. Control animals received vehicle (lactic acid) only.
The catalepsy induced by oral administration of various concentrations of AN 168 and perphenazine was measured by the “wall” test and the “piano” test described hereinabove. The time course of catalepsy was measured 4-24 hours following oral administration of 2.5, 5, 10 and 20 mg/kg perphenazine and respective equimolar doses of 3.5, 7, 14 and 28 mg/kg AN-168. The total catalepsy represents the sum of average catalepsy per treated group during the 4-24 hours of follow-up.

mice = experiment: Catalepsy in mice (bar between two cages); type: in vivo, mouse; details: adult male mice, 1.5 mg/kg perphenazine or equimolar dose (FIG. 7a)
Protocol: Young adult male and female mice were purchased from Harlan, Israel. The animals were housed for 4-7 days under controlled conditions prior to experimentation. Experiments were conducted in a double blind procedure. In each experiment various treatment groups (about 10 animals each) were tested.
Catalepsy in mice: The appearance of stereotypic cataleptic behavior in mice following the neuroleptic treatment was measured in two different sets of experiments.
The catalepsy was determined using a system of two cages and a bar therebetween. The mouse was hung in the middle of the bar, and the percentage of animals reaching the target within 2 minutes was monitored 1 hour, 2 hours and 3 hours following the treatment.
The catalepsy was determined using the system described hereinabove. The mouse was hung in the middle of the bar, and the time it took the animal to reach the target was measured.

C6 rat glioma cells [4] = experiment: Viability of C6 rat glioma cells (neutral red); type: cell-based; details: Rattus norvegicus, Glioma cell; 24 hours treatment, neutral red, up to 100 μM (FIG. 14)
Protocol: as §2
The cells were sub-cultured and the tested compounds were added thereto in increasing concentrations, up to 100 μM.

C6 rat glioma cells [5] = experiment: DNA fragmentation in C6 rat glioma cells (propidium iodide flow cytometry); type: cell-based; details: Cisplatin 30 μM; perphenazine 25 and 50 μM; AN 168 25, 50 μM (FIG. 18)
Protocol: Apoptosis and DNA fragmentation: Fragmentation of cell nuclei was studied by flow cytometric analysis of propidium iodide-stained cells. This analysis was performed using a FACScan (Becton Dickinson, Mountain View, Calif.) equipped with an argon ion laser adjusted to an excitation wavelength of 480 nm and with a Doublet Discrimination Module (DDM). Lysis II (Becton Dickinson) software was used for data acquisition. Apoptotic nuclear changes were evaluated according to the criteria of Nicolletti et al..
The DNA fragmentation was determined by the propidium iodide flow cytometric method described hereinabove.

rat myocytes = details: Wistar, rat
Protocol: as §4

rats [6] = details: rat, in vivo, ip, 5 mg/kg
Protocol: as §6, §7, §8

[7] = linear regression of survival percentage, read-out: IC50, JURKAT

SMILES | time at which prolactin blood level peaked (prolactin) [min] | IC50 (B16 MDR) [µM] | IC50 (B16) [µM] | IC50 (HT-29) [µM] | IC50 (PC-3) [µM] | IC50 (3T3) [µM] | IC50 (HL 60) [µM] | IC50 (HL 60 MX2 (MDR)) [µM] | IC50 (MES SA) [µM] | IC50 (MES SA DX5 (MDR)) [µM] | IC50 (Jurkat T lymphoma cells; [7]) [µM] | IC50 (U-937) [µM] | LD50 at 2 weeks (in vivo) [mg/kg] | sedation and mobility score, 30 min (rats [2]) | sedation and mobility score, 60 min (rats [2]) | sedation and mobility score, 90 min (rats [2]) | sedation and mobility score, 120 min (rats [2]) | sedation and mobility score, 180 min (rats [2]) | sedation and mobility score, 240 min (rats [2]) | further results
CCCC(=O)OCCN1CCN(CCCN2c3ccccc3Sc3ccc(Cl)cc32)CC1 [AN-167, Perphenazine Butyrate] | 60 | 41.5 ± 1.8 | 17.3 ± 4.5 | 13.3 ± 2.4 | 49.1 | 21.7 | 17.3 | 19.9 | 17.2 | 20.9 | 11.4 | 23.3 | 120 | 0 | 1 | 1 | 2 | 2 | 2 | effect on the proliferation of B16 murine melanoma cells (B16; representative experiment (FIG. 13)): relatively active as anti-proliferative drugs; IC50 (Normal rat fibroblasts): 31.6 µM; time course of mortality (ICR mice): delayed; average of total catalepsy as percentage of the perphenazine-induced catalepsy (rats [1]; equimolar doses, four independent experiments (FIG. 6)): lower catalepsy as compared with perphenazine; induced catalepsy, SAR studies (rats [1]; i.p., 5 mg/kg perphenazine and equimolar conjugates, compared with perphenazine (FIG. 2)): significant reduction of the induced catalepsy; total catalepsy (rats [1]; i.p., 5 mg/kg perphenazine and equimolar conjugates, sum of determinations at 0, 60, 120 min (FIG. 1a)): did not induce catalepsy at all; total catalepsy (rats [1]; i.p., 5 mg/kg perphenazine, 7.5 mg/kg fluphenazine, equimolar conjugates, sum 0-420 min, normalized to parent drug (FIG. 3a)): reduced catalepsy significantly; time course of catalepsy (rats [1]; i.p., over a period of 7 hours (FIGS. 4a, 4b)): reduced catalepsy as compared with perphenazine
OCCN1CCN(CCCN2c3ccccc3Sc3ccc(Cl)cc32)CC1 [Perphenazine, perphenazine, reference compound] | 60 | 18.4 ± 5.4 | 12.5 ± 1.29 | 8.85 ± 2.7 | 23.1 ± 2.3 | 26.6 | 19.8 | 22.6 | 15.3 | 16.2 | 11.3 | 21.3 | 109 | 1 | 2 | 2 | 3 | 2 | 2 | muscular rigidity and tachypnea (rats [3]): muscular rigidity and tachypnea were observed; catalepsy: percentage of animals reaching the target within 2 minutes (mice): higher catalepsy; IC50 (Jurkat T lymphoma cells; alamar blue method (FIG. 15), read-out: IC50, Jurkat T lymphoma cells viability): 16 µM; IC50 (C6 rat glioma cells [4]): 19.2 µM; DNA fragmentation (C6 rat glioma cells [5]): induced a dramatically increase in DNA fragmentation; decrease in cells viability (rat myocytes): 20%; time at which catalepsy peaked (rats [6]; male): 2 h; total catalepsy (rats [6]): catalepsy was induced; Sedation score (rats [2]; 2.5 mg/kg): 0; Sedation score (rats [2]; 5 mg/kg): 1; Sedation score (rats [2]; 10 mg/kg): 2; Sedation score (rats [2]; 20 mg/kg): 3
